Key:
Assay type in all cases: functional
Candida albicans [1] = assay: Antifungal activity against Candida albicans ATCC 10231 at 1 ug after 72 hrs by disk diffusion method; conditions: ATCC 10231, 72 h, read-out: IZ
Kluyveromyces marxianus [2] = assay: Antifungal activity against Kluyveromyces fragilis NRRL 2415 at 1 ug after 72 hrs by disk diffusion method; conditions: NRRL 2415, 72 h, read-out: IZ
Rhodotorula mucilaginosa [3] = assay: Antifungal activity against Rhodotorula rubra DSM 70403 at 1 ug after 72 hrs by disk diffusion method; conditions: DSM 70403, 72 h, read-out: IZ
[4] = test system: Hanseniaspora guilliermondii; assay: Antifungal activity against Hanseniaspora guilliermondii DSM 3432 at 1 ug after 72 hrs by disk diffusion method; conditions: DSM 3432, 72 h, read-out: IZ
Debaryomyces hansenii [5] = assay: Antifungal activity against Debaryomyces hansenii DSM 70238 at 1 ug after 72 hrs by disk diffusion method; conditions: DSM 70238, 72 h, read-out: IZ
Candida albicans [6] = assay: Antifungal activity against Candida albicans ATCC 10231 at 10 ug after 72 hrs by disk diffusion method; conditions: ATCC 10231, 72 h, read-out: IZ
Kluyveromyces marxianus [7] = assay: Antifungal activity against Kluyveromyces fragilis NRRL 2415 at 10 ug after 72 hrs by disk diffusion method; conditions: NRRL 2415, 72 h, read-out: IZ
Rhodotorula mucilaginosa [8] = assay: Antifungal activity against Rhodotorula rubra DSM 70403 at 10 ug after 72 hrs by disk diffusion method; conditions: DSM 70403, 72 h, read-out: IZ
[9] = test system: Hanseniaspora guilliermondii; assay: Antifungal activity against Hanseniaspora guilliermondii DSM 3432 at 10 ug after 72 hrs by disk diffusion method; conditions: DSM 3432, 72 h, read-out: IZ
Debaryomyces hansenii [10] = assay: Antifungal activity against Debaryomyces hansenii DSM 70238 at 10 ug after 72 hrs by disk diffusion method; conditions: DSM 70238, 72 h, read-out: IZ

Structure (SMILES) | zone of inhibition at 1 µg/disc (Candida albicans [1]) | zone of inhibition at 1 µg/disc (Kluyveromyces marxianus [2]) | zone of inhibition at 1 µg/disc (Rhodotorula mucilaginosa [3]) | zone of inhibition at 1 µg/disc [4] | zone of inhibition at 1 µg/disc (Debaryomyces hansenii [5]) | zone of inhibition at 10 µg/disc (Candida albicans [6]) | zone of inhibition at 10 µg/disc (Kluyveromyces marxianus [7]) | zone of inhibition at 10 µg/disc (Rhodotorula mucilaginosa [8]) | zone of inhibition at 10 µg/disc [9] | zone of inhibition at 10 µg/disc (Debaryomyces hansenii [10])
CC(=O)N1CCN(c2ccc(OCC3COC(Cn4ccnc4)(c4ccc(Cl)cc4Cl)O3)cc2)CC1 (stereo not given) [KETOCONAZOLE] | 16 mm | 22 mm | 21 mm | 24 mm | 14 mm | – | – | – | – | –
Clc1ccccc1C(c1ccccc1)(c1ccccc1)n1ccnc1 [CLOTRIMAZOLE] | – | – | – | – | – | 18 mm | 16 mm | 15 mm | 22 mm | 18 mm
